Experimental data reported in ChEMBL document CHEMBL1681651, “A broad spectrum anticancer nucleoside with selective toxicity against human colon cells in vitro” (2011).

How the values were obtained:
Format in all cases: functional
786-0 = assay: Growth inhibition of human 786-0 cells assessed as cell growth at 1 uM after 48 hrs by SRB assay; conditions: 786-0, 48 h, read-out: Activity
MOLT-4 = assay: Growth inhibition of human MOLT4 cells assessed as cell growth at 10 uM after 48 hrs by SRB assay; conditions: MOLT-4, 48 h, read-out: Activity
EKVX = assay: Growth inhibition of human EKVX cells assessed as cell growth at 10 uM after 48 hrs by SRB assay; conditions: read-out: Activity
HOP-62 [1] = assay: Growth inhibition of human HOP62 cells assessed as cell growth at 10 uM after 48 hrs by SRB assay; conditions: HOP-62, 48 h, read-out: Activity
NCI-H460 [2] = assay: Growth inhibition of human NCI-H460 cells after 48 hrs by […] growth inhibition assay; conditions: NCI-H460, 48 h
NCI-H522 [3] = assay: Growth inhibition of human NCI-H522 cells after 48 hrs by […] growth inhibition assay; conditions: NCI-H522, 48 h
SNB-19 = assay: Growth inhibition of human SNB19 cells after 48 hrs by […] growth inhibition assay; conditions: SNB-19, 48 h
U-251 = assay: Growth inhibition of human U251 cells after 48 hrs by […] growth inhibition assay; conditions: U-251, 48 h
OVCAR-3 = assay: Growth inhibition of human OVCAR3 cells after 48 hrs by […] growth inhibition assay; conditions: OVCAR-3, 48 h
OVCAR-8 [4] = assay: Growth inhibition of human OVCAR8 cells after 48 hrs by […] growth inhibition assay; conditions: OVCAR-8, 48 h
SN12C = assay: Growth inhibition of human SN12C cells after 48 hrs by […] growth inhibition assay
T47D = assay: Growth inhibition of human T47D cells after 48 hrs by […] growth inhibition assay
CCRF-CEM = assay: Growth inhibition of human CCRF-CEM cells assessed as cell growth at 0.1 uM after 48 hrs by SRB assay; conditions: read-out: Activity
NCI-H522 [5] = assay: Growth inhibition of human NCI-H522 cells assessed as cell growth at 0.1 uM after 48 hrs by SRB assay; conditions: NCI-H522, 48 h, read-out: Activity
Malme-3M [6] = assay: Growth inhibition of human MALME-3M cells assessed as cell growth at 0.1 uM after 48 hrs by SRB assay; conditions: read-out: Activity
M14 = assay: Growth inhibition of human M14 cells assessed as cell growth at 0.1 uM after 48 hrs by SRB assay; conditions: M14, 48 h, read-out: Activity
MDA-MB-435 = assay: Growth inhibition of human MDA-MB-435 cells assessed as cell growth at 0.1 uM after 48 hrs by SRB assay; conditions: MDA-MB-435, 48 h, read-out: Activity
Malme-3M [7] = assay: Growth inhibition of human MALME-3M cells assessed as cell growth at 10 uM after 48 hrs by SRB assay; conditions: read-out: Activity
UACC-257 [8] = assay: Growth inhibition of human UACC257 cells assessed as cell growth at 10 uM after 48 hrs by SRB assay; conditions: UACC-257, 48 h, read-out: Activity
OVCAR-8 [9] = assay: Growth inhibition of human OVCAR8 cells assessed as cell growth at 10 uM after 48 hrs by SRB assay; conditions: OVCAR-8, 48 h, read-out: Activity
HOP-92 = assay: Growth inhibition of human HOP92 cells assessed as cell growth at 100 uM after 48 hrs by SRB assay; conditions: HOP-92, 48 h, read-out: Activity
NCI-H460 [10] = assay: Growth inhibition of human NCI-H460 cells assessed as cell growth at 100 uM after 48 hrs by SRB assay; conditions: NCI-H460, 48 h, read-out: Activity
COLO 205 = assay: Growth inhibition of human COLO205 cells assessed as cell growth at 100 uM after 48 hrs by SRB assay; conditions: COLO 205, 48 h, read-out: Activity
UACC-257 [11] = assay: Growth inhibition of human UACC257 cells assessed as cell growth at 100 uM after 48 hrs by SRB assay; conditions: UACC-257, 48 h, read-out: Activity
SK-OV-3 = assay: Growth inhibition of human SKOV3 cells assessed as cell growth at 100 uM after 48 hrs by SRB assay; conditions: SK-OV-3, 48 h, read-out: Activity
SK-MEL-5 = assay: Growth inhibition of human SK-MEL-5 cells assessed as cell growth at 1 mM after 48 hrs by SRB assay; conditions: SK-MEL-5, 48 h, read-out: Activity
TK-10 = assay: Growth inhibition of human TK10 cells assessed as cell growth at 1 mM after 48 hrs by SRB assay; conditions: TK-10, 48 h, read-out: Activity
HOP-62 [12] = assay: Growth inhibition of human HOP62 cells assessed as cell growth at 1 uM after 48 hrs by SRB assay; conditions: HOP-62, 48 h, read-out: Activity
NCI-H522 [13] = assay: Growth inhibition of human NCI-H522 cells assessed as cell growth at 1 uM after 48 hrs by SRB assay; conditions: NCI-H522, 48 h, read-out: Activity
KM12 = assay: Growth inhibition of human KM12 cells assessed as cell growth at 1 uM after 48 hrs by SRB assay; conditions: KM12, 48 h, read-out: Activity
SF-295 = assay: Growth inhibition of human SF295 cells assessed as cell growth at 1 uM after 48 hrs by SRB assay; conditions: SF-295, 48 h, read-out: Activity
Malme-3M [14] = assay: Growth inhibition of human MALME-3M cells assessed as cell growth at 1 uM after 48 hrs by SRB assay; conditions: read-out: Activity
[15] = read-out: LC50 (the source's name)
[16] = read-out: pLC50 (the source's name) (converted)

Which growth at 1 µM (786-0) does the source give for CCOC(=O)C[C@H]1[C@@H](O[Si](C)(C)C(C)(C)C)[C@H](n2cnc3c(NC(=O)Nc4ccccc4)ncnc32)O[C@@H]1CNC(=O)NC here?
Its growth at 1 µM is 83%.

What about the growth at 10 µM (MOLT-4) of the same compound?
Its growth at 10 µM is 76%.

And the growth at 10 µM (EKVX)?
The growth at 10 µM was 91%.

What about the growth at 10 µM (HOP-62 [1]) of the same compound?
The growth at 10 µM was 97%.

And the GI50 (NCI-H460 [2]; read-out: GI50)?
Its GI50 is 5.54 µM.

What about the CC50 (NCI-H460 [2]; [15]) of the same compound?
Its CC50 is greater than 100 µM.

And the TGI (NCI-H460 [2]; read-out: TGI)?
The TGI was 25 µM.

And the GI50 (NCI-H460 [2]; read-out: pGI50 (converted))?
The GI50 was 5.5 µM.

What about the CC50 (NCI-H460 [2]; [16]) of the same compound?
The CC50 was greater than 100 µM.

What about the TGI (NCI-H460 [2]; read-out: pTGI (converted)) of the same compound?
The TGI was 25.1 µM.

And the GI50 (NCI-H522 [3]; read-out: GI50)?
The GI50 was 4.36 µM.

What about the CC50 (NCI-H522 [3]; [15]) of the same compound?
Its CC50 is greater than 100 µM.

What about the TGI (NCI-H522 [3]; read-out: TGI) of the same compound?
Its TGI is 85.7 µM.

What about the GI50 (NCI-H522 [3]; read-out: pGI50 (converted)) of the same compound?
The GI50 was 4.37 µM.

And the CC50 (NCI-H522 [3]; [16])?
The CC50 was greater than 100 µM.

And the TGI (NCI-H522 [3]; read-out: pTGI (converted))?
Its TGI is 85.1 µM.

What about the GI50 (SNB-19; read-out: GI50) of the same compound?
Its GI50 is 29 µM.

And the CC50 (SNB-19; [15])?
The CC50 was greater than 100 µM.

What about the TGI (SNB-19; read-out: TGI) of the same compound?
Its TGI is greater than 100 µM.

And the GI50 (SNB-19; read-out: pGI50 (converted))?
The GI50 was 28.8 µM.

And the CC50 (SNB-19; [16])?
Its CC50 is greater than 100 µM.

What about the TGI (SNB-19; read-out: pTGI) of the same compound?
Its TGI is greater than 100 µM.

What about the GI50 (U-251; read-out: GI50) of the same compound?
Its GI50 is 4.69 µM.

And the CC50 (U-251; [15])?
The CC50 was 76 µM.

What about the TGI (U-251; read-out: TGI) of the same compound?
Its TGI is 20.9 µM.

And the GI50 (U-251; read-out: pGI50 (converted))?
The GI50 was 4.68 µM.

What about the CC50 (U-251; [16]) of the same compound?
Its CC50 is 75.9 µM.

What about the TGI (U-251; read-out: pTGI (converted)) of the same compound?
The TGI was 20.9 µM.

What about the GI50 (OVCAR-3; read-out: GI50) of the same compound?
The GI50 was 4.59 µM.

What about the CC50 (OVCAR-3; [15]) of the same compound?
The CC50 was 91.3 µM.

And the TGI (OVCAR-3; read-out: TGI)?
The TGI was 17.2 µM.

And the GI50 (OVCAR-3; read-out: pGI50 (converted))?
Its GI50 is 4.57 µM.

What about the CC50 (OVCAR-3; [16]) of the same compound?
The CC50 was 91.2 µM.

And the TGI (OVCAR-3; read-out: pTGI (converted))?
Its TGI is 17 µM.

What about the GI50 (OVCAR-8 [4]; read-out: GI50) of the same compound?
Its GI50 is 4.92 µM.

What about the CC50 (OVCAR-8 [4]; [15]) of the same compound?
The CC50 was greater than 100 µM.

What about the TGI (OVCAR-8 [4]; read-out: TGI) of the same compound?
Its TGI is 77.2 µM.

What about the GI50 (OVCAR-8 [4]; read-out: pGI50 (converted)) of the same compound?
The GI50 was 4.9 µM.

What about the CC50 (OVCAR-8 [4]; [16]) of the same compound?
Its CC50 is greater than 100 µM.

And the TGI (OVCAR-8 [4]; read-out: pTGI (converted))?
Its TGI is 77.6 µM.

What about the GI50 (SN12C; read-out: GI50) of the same compound?
Its GI50 is 9.1 µM.

What about the CC50 (SN12C; [15]) of the same compound?
The CC50 was greater than 100 µM.

What about the TGI (SN12C; read-out: TGI) of the same compound?
Its TGI is greater than 100 µM.

What about the GI50 (SN12C; read-out: pGI50 (converted)) of the same compound?
Its GI50 is 9.12 µM.

What about the CC50 (SN12C; [16]) of the same compound?
Its CC50 is greater than 100 µM.

And the TGI (SN12C; read-out: pTGI (converted))?
Its TGI is greater than 100 µM.

What about the GI50 (T47D; read-out: GI50) of the same compound?
The GI50 was 2.55 µM.

What about the CC50 (T47D; [15]) of the same compound?
The CC50 was greater than 100 µM.

What about the TGI (T47D; read-out: TGI) of the same compound?
Its TGI is greater than 100 µM.

What about the GI50 (T47D; read-out: pGI50 (converted)) of the same compound?
The GI50 was 2.57 µM.

What about the CC50 (T47D; [16]) of the same compound?
The CC50 was greater than 100 µM.

What about the TGI (T47D; read-out: pTGI (converted)) of the same compound?
Its TGI is greater than 100 µM.

What about the growth at 0.1 µM (CCRF-CEM) of the same compound?
Its growth at 0.1 µM is 96%.

And the growth at 0.1 µM (NCI-H522 [5])?
The growth at 0.1 µM was 89%.

And the growth at 0.1 µM (Malme-3M [6])?
Its growth at 0.1 µM is 104%.

And the growth at 0.1 µM (M14)?
The growth at 0.1 µM was 90%.

And the growth at 0.1 µM (MDA-MB-435)?
The growth at 0.1 µM was 95%.

What about the growth at 10 µM (Malme-3M [7]) of the same compound?
Its growth at 10 µM is 92%.

And the growth at 10 µM (UACC-257 [8])?
Its growth at 10 µM is 99%.

What about the growth at 10 µM (OVCAR-8 [9]) of the same compound?
Its growth at 10 µM is 98%.

And the growth at 100 µM (HOP-92)?
The growth at 100 µM was -32%.

What about the growth at 100 µM (NCI-H460 [10]) of the same compound?
Its growth at 100 µM is 32%.

What about the growth at 100 µM (COLO 205) of the same compound?
The growth at 100 µM was 20%.

And the growth at 100 µM (UACC-257 [11])?
Its growth at 100 µM is 34%.

What about the growth at 100 µM (SK-OV-3) of the same compound?
The growth at 100 µM was 66%.

What about the growth at 1000 µM (SK-MEL-5) of the same compound?
The growth at 1000 µM was 11%.

And the growth at 1000 µM (TK-10)?
Its growth at 1000 µM is -38%.

And the growth at 1 µM (HOP-62 [12])?
The growth at 1 µM was 92%.

And the growth at 1 µM (NCI-H522 [13])?
The growth at 1 µM was 85%.

And the growth at 1 µM (KM12)?
Its growth at 1 µM is 112%.

What about the growth at 1 µM (SF-295) of the same compound?
Its growth at 1 µM is 91%.

And the growth at 1 µM (Malme-3M [14])?
The growth at 1 µM was 95%.

With CNC(=O)OC[C@H]1O[C@@H](n2cnc3c(NC(=O)Nc4ccccc4)ncnc32)[C@H](O[Si](C)(C)C(C)(C)C)[C@@H]1O[Si](C)(C)C(C)(C)C as the compound, how does the growth at 10 µM (MOLT-4) read?
The growth at 10 µM was 75.3%.

And the growth at 10 µM (EKVX)?
The growth at 10 µM was 104%.

And the growth at 10 µM (HOP-62 [1])?
The growth at 10 µM was 104%.

And the growth at 10 µM (Malme-3M [7])?
Its growth at 10 µM is 114%.

And the growth at 10 µM (OVCAR-8 [9])?
The growth at 10 µM was 88.8%.
